Source: US9717746B2 (priority 2014, dated 2017)

Tests used:
hippocampal slices [1] = tested on: hippocampal slices
hippocampal slices [2] = tested on: hippocampal slices; remark: listed apart in the source

Row | SMILES | neurotoxicity of the neurotoxicant (PS area) (hippocampal slices [1]) | effect of antidote per se on PS (without neurotoxicant) (hippocampal slices [2])
1 | CC[C@@H]1C(=O)OC[C@@H]1Cc1cncn1C [pilocarpine] | neurotoxicity of pilocarpine increases at high potassium concentration | 
2 | CCCCCCCCCCCCCCCCCCOCC(COP(=O)([O-])OCC[N+](C)(C)C)OC (racemic) [edelfosine, 1-O-octadecyl-2-O-methyl-rac-glycero-3-phosphocholine] |  | innocuous
